Source: publication PMC11189555, “Aryl amino acetamides prevent Plasmodium falciparum ring development via targeting the lipid-transfer protein PfSTART1” (Nature Communications, 2024)
Several values for one entry are separate records, joined by “and”; a condition that tells them apart may be missing. Identical values can stand only once.

Key:
[1] = tested on: male gametes from mature stage V gametocytes; experiment: Dual gamete formation assay: male gamete formation (exflagellation); type: cell-based, Plasmodium falciparum; details: for inhibition of male gamete formation: 1 µM, 48 h treatment of mature gametocytes; for Dual Gamete Formation Assay: Male at 1 µM, Mean: mean of 4 plates
Description: The compounds were tested in the P. falciparum Dual Gamete Formation Assay (PfDGFA)[84], fully described in the Supplementary Information. […]
Dual gamete formation assays. The compounds were tested in the P. falciparum Dual Gamete Formation Assay (PfDGFA) 13. Briefly, mature stage V gametocytes were exposed to compounds for 48 h at 37°C in 384 well plates in gametocyte culture medium (RPMI 1640 supplemented with 25 mM HEPES, 50 μg/mL hypoxanthine, 4.8 g/L NaHCO3, 2 mM L-glutamine, 5% pooled type AB serum, 0.5% Albumax II (Gibco)) under a 1% O2, 3% CO2, 96% N2 environment. Gametogenesis was then triggered by the addition of 10 μL ookinete medium (gametocyte culture medium supplemented with 100 μM xanthurenic acid and 0.27 µg/mL Cy3-labelled anti-Pfs25 antibody) to each well at room temperature. Plates were then cooled on a metal block at 4°C for four min to ensure even cooling and then stabilised for a further 4 min at 28°C. At 20 min post-induction, male gametogenesis was recorded in each well by automated brightfield microscopy using a x4 objective lens and 1.5x magnifier (x6 effective magnification). Afterward, plates were incubated in the dark at room temperature for 24 h and then female gametogenesis recorded in each well by automated fluorescence microscopy (anti-Pfs25-positive cells). All experiments were performed in quadruplicate with DMSO and cabamiquine (DDD107498)17 as negative and positive controls respectively. All data was evaluated in comparison to the positive and negative controls to calculate percentage inhibition of male and female gametocytes, and dose response analysis and IC50 calculation performed using GraphPad Prism. […]

[2] = tested on: M-833 resistant parasite populations (PopC, PopD, PopE); experiment: Growth inhibition of M-833 resistant populations (LDH); type: cell-based, Plasmodium falciparum
Description: After three cycles of drug treatment, three parasite populations were identified as less susceptible to the compound and their growth in serially diluted M-833 after 72 h was measured by lactate dehydrogenase (LDH) activity assays. […] The two most resistant populations (PopD and PopE) were further cloned out by limiting dilution. […] To identify the target of M-833, genomic DNA was extracted from the clonal lines of PopD and PopE and subjected to whole genome sequencing using MinION technology and compared to clonal 3D7 parental parasites. This identified 14 non-synonymous single nucleotide polymorphisms (SNP) across nine different genes when compared to the 3D7 parental strain (Supplementary Data 1). The two genes that had SNPs present across all resistant clones were the P. falciparum liver stage antigen 1 gene (PF3D7_1036400) and P. falciparum stAR-related lipid transfer protein (PF3D7_0104200, PFA0210c; pfstart1). The former is not expressed in the blood stage[19]–[21] and comprises a large central repeat region which is problematic for variant calling. […] Collectively, all the identified mutations (N309K, I224F, N330K) were found within the central conserved START domain and predicted to face the lipid-binding pocket (Fig. 1C).
The drug was then removed, and parasites were allowed to recover. Another cycle of drug treatment (3 μM M-833) was then resumed. The resistant lines were cloned out by limiting dilution (diluting the culture into a 96-well plate to achieve an average of ~0.3 parasites per well), prior to growth inhibition assays and genomic DNA (gDNA) extraction (DNeasy Blood and Tissue kit (Qiagen)[18].
Parasite growth assays with inhibitory compounds were performed as per[11] and are fully described in the Supplementary Information. […]
and compound 4. Note that M-833 was first purchased from MolPort (MolPort -002-267-916) then made in-house at WEHI: the differences observed in EC50s across experiments are attributed to the different batches of M -833. For some experiments, 0, 0.25 or 2.5 mM of glucosamine (GlcN) was also added. Experiments were set up in technical duplicates or triplicates. Following a freeze -thaw cycle, lactate dehydrogenase (LDH) activity was assessed as an indicator of parasite growt h 5. 30 μL of parasite culture was incubated for 30 min in the dark with 75 μL Malstat mixture (0.1 M Tris pH 9.0, 20 g/L lactic acid, pH 7.5, 0.2% Triton-X100, 0.5 g/L acetylpyridine adenine dinucleotide (APAD, Sigma), 200 μg/mL nitroblue tetrazolium (NBT; Sigma), 1 μg/mL phenozine ethosulfate (PES; Sigma)). Absorbance was then measured at 650 nm, transformed using the formula below, plotted against the logarithm of the concentrations, and a non-linear regression (log(inhibitor) vs. response, variable slope) was calculated using GraphPad Prism to assess the half-inhibitory […]
Growth inhibition % = (1 − average(sample)− average(uRBC)) ∗ 100 […]
The DMSO samples were also used to assess growth of parasite in the presence of 0.25 and 2.5 mM GlcN (normalised by DMSO in 0 mM GlcN). […]

[3] = tested on: P. falciparum oocysts in mosquito midguts; experiment: Standard membrane feeding assay: oocysts in mosquito midguts (Walter and Eliza Hall Institute); type: in vivo, Plasmodium falciparum; details: for Oocyst counts from individual mosquitoes: 30 mosquitoes dissected
Description: These assays were performed at the Walter and Eliza Hall Institute and at the London School of Hygiene and Tropical Medicine using slightly different approaches which are described in the Supplementary Information. […]
were aspirated into a cup and anesthetized by cooling to 4 °C until immobilized and kept on ice for the dissection. The mosquitoes were then dissected as previously described 12 and collected midguts were maintained in 1X PBS (Gibco) until they were stained with mercurochrome for 20 mins. […]

Structure (SMILES): Cc1cc(Cl)c(S(=O)(=O)N2CCCC2)cc1OCC(=O)NC1CCCCC1 [M-833]
- inhibition of male gamete formation [1]: no inhibition
- Dual Gamete Formation Assay: Male at 1 µM, Mean [1]: 0.872
- Growth (Abs) Normalised to DMSO ([2]; Population C, M-833 0.0390625 uM): 99.9117
- Growth (Abs) Normalised to DMSO ([2]; Population C, M-833 0.078125 uM): 102.105
- Growth (Abs) Normalised to DMSO ([2]; Population C, M-833 0.15625 uM): 99.9558
- Growth (Abs) Normalised to DMSO ([2]; Population C, M-833 0.3125 uM): 98.7636
- Growth (Abs) Normalised to DMSO ([2]; Population C, M-833 0.625 uM): 92.6626
- Growth (Abs) Normalised to DMSO ([2]; Population C, M-833 1.25 uM): 74.9632
- Growth (Abs) Normalised to DMSO ([2]; Population C, M-833 2.5 uM): 42.7878
- Growth (Abs) Normalised to DMSO ([2]; Population C, M-833 5 uM): 8.5443
- Growth (Abs) Normalised to DMSO ([2]; Population C, M-833 10 uM): 1.435
- Growth (Abs) Normalised to DMSO ([2]; Population D, M-833 0.0390625 uM): 100.282
- Growth (Abs) Normalised to DMSO ([2]; Population D, M-833 0.078125 uM): 101.574
- Growth (Abs) Normalised to DMSO ([2]; Population D, M-833 0.15625 uM): 100.622
- Growth (Abs) Normalised to DMSO ([2]; Population D, M-833 0.3125 uM): 100.758
- Growth (Abs) Normalised to DMSO ([2]; Population D, M-833 0.625 uM): 96.1318
- Growth (Abs) Normalised to DMSO ([2]; Population D, M-833 1.25 uM): 94.9752
- Growth (Abs) Normalised to DMSO ([2]; Population D, M-833 2.5 uM): 84.3814
- Growth (Abs) Normalised to DMSO ([2]; Population D, M-833 5 uM): 63.806
- Growth (Abs) Normalised to DMSO ([2]; Population D, M-833 10 uM): 31.8884
- Growth (Abs) Normalised to DMSO ([2]; Population E, M-833 0.0390625 uM): 101.958
- Growth (Abs) Normalised to DMSO ([2]; Population E, M-833 0.078125 uM): 104.075
- Growth (Abs) Normalised to DMSO ([2]; Population E, M-833 0.15625 uM): 104.451
- Growth (Abs) Normalised to DMSO ([2]; Population E, M-833 0.3125 uM): 103.313
- Growth (Abs) Normalised to DMSO ([2]; Population E, M-833 0.625 uM): 104.846
- Growth (Abs) Normalised to DMSO ([2]; Population E, M-833 1.25 uM): 106.755
- Growth (Abs) Normalised to DMSO ([2]; Population E, M-833 2.5 uM): 98.4077
- Growth (Abs) Normalised to DMSO ([2]; Population E, M-833 5 uM): 90.3966
- Growth (Abs) Normalised to DMSO ([2]; Population E, M-833 10 uM): 68.0744
- increase in EC50 compared to 3D7 parasites ([2]; cloned PopD and PopE lines, Fig 1B): 17 fold

Structure (SMILES): CC(C)(Nc1ccc(Cl)c(S(=O)(=O)N2CCOCC2)c1)C(=O)Nc1ccc(F)c(Cl)c1 [W-991]
- inhibition of male gamete formation [1]: no inhibition
- Dual Gamete Formation Assay: Male at 1 µM, Mean [1]: -1.328
- reduction of the number of oocysts compared to untreated control ([3]; 100 nM W-991, oocysts counted 7 days after feeding): > 20 fold
- Oocyst counts from individual mosquitoes ([3]; W-991 1 nM): 38 and 56 and 49 and 30 and 0 and 4 and 7 and 9 and 6 and 8 and 12 and 35 and 22 and 20 and 13 and 50 and 15 and 10 and 31 and 18 and 11 and 24 and 1
- Oocyst counts from individual mosquitoes ([3]; W-991 50 nM): 9 and 3 and 23 and 27 and 20 and 4 and 12 and 0 and 7 and 10 and 2 and 31 and 22 and 1 and 17
- Oocyst counts from individual mosquitoes ([3]; W-991 100 nM): 6 and 0 and 2 and 16 and 24 and 8 and 11 and 5 and 1 and 7 and 12
- oocysts per mosquito ([3]; W-991 1, 50, 100 nM, day 7 after feeding): dose-dependent decrease in oocysts per mosquito

Structure (SMILES): O=C(CNc1ccc(Cl)c(S(=O)(=O)N2CCOCC2)c1)Nc1ccc(F)c(Cl)c1 [compound 2, reference compound]
- activity against M-833-resistant populations ([2]; Fig 4B): cross-resistant
